pKd: −log10 of the molar value. Converted amounts (≈) assume the structure as drawn. Non-standard residues stand in square brackets, D forms with d. Residues, ends and D or L forms follow the SMILES beside them. *: point of attachment. Phe(4-guanidino) = N=C(N)Nc1ccc(C[C@H](N)C(=O)O)cc1; Bip = N[C@@H](Cc1ccc(-c2ccccc2)cc1)C(=O)O; Phe(4-NH2) = Nc1ccc(C[C@H](N)C(=O)O)cc1; hArg = N=C(N)NCCCC[C@H](N)C(=O)O; Agp = N=C(N)NC[C@H](N)C(=O)O; Orn = NCCC[C@H](N)C(=O)O; NHBn = c1ccc(CN*)cc1

The nature of data set [1]: Chemical stability assessed as half life at 1 mg/ml in presence of trypsin incubated for 24 hrs by RP-HPLC. Conditions: for half-life at 1 mg/ml: trypsin; for t1/2: isolated protein, 24 h. The data set is classed as physicochemical.
Data set [2] in a line: Binding affinity to trypsin at 25 degC by isothermal calorimetry.
Data set [3] deals with Staphylococcus aureus. Description: Antimicrobial activity against Staphylococcus aureus ATCC 25923 by serial dilution method. In kind it is functional.
The test system of data set [4] is Staphylococcus aureus. Description: Antimicrobial activity against methicillin-resistant Staphylococcus aureus ATCC 33591 by serial dilution method. In kind it is functional.
Data set [5] in a line: Half life in CD1 mouse stomach whole organ extracts assessed as half life at 1 mg/ml at 37 degC at pH 7.4 by HPLC. In kind it is ADME, tissue-based.
A short description of data set [6]: Half life in CD1 mouse duodenum whole organ extracts assessed as half life at 1 mg/ml at 37 degC by HPLC. In kind it is ADME, tissue-based.
Data set [7] is described as follows: Half life in CD1 mouse liver whole organ extracts assessed as half life at 1 mg/ml at 37 degC by HPLC. The data set is classed as ADME, tissue-based.

Broadly, the half-life is how long it takes for the measured level to halve. For orientation: pKd means the negative decadic logarithm of the Kd, by convention in mol/L. A low value points to a large Kd. A word on the MIC: it is the least concentration at which growth counts as inhibited. Consider `N=C(N)NCCC[C@H](NC(=O)[C@H](Cc1ccc(-c2ccccc2)cc1)NC(=O)[C@@H](N)CCCCN)C(=O)NCc1ccccc1` (H-Lys-[Bip]-Arg-NHBn), for which the half-life at 1 mg/ml in data set [1] was 1.8 h. In addition, the pKd in data set [2] is 4.94. In addition, the MIC in data set [3] and in data set [4] was 10 µg/mL (≈ 16.3 µM) each time.
For `N=C(N)NCCC[C@H](N)C(=O)N[C@@H](Cc1ccc(-c2ccccc2)cc1)C(=O)N[C@@H](CCCCN)C(=O)NCc1ccccc1` (H-Arg-[Bip]-Lys-NHBn), in data set [1], the half-life at 1 mg/ml is 2.8 h. The molecule further gave a pKd in data set [2] of 4.70. In addition, the MIC in data set [3] and in data set [4] was 10 µg/mL (≈ 16.3 µM) throughout.
With `N=C(N)NCCC[C@H](NC(=O)[C@H](Cc1ccc(-c2ccccc2)cc1)NC(=O)[C@@H](N)Cc1ccc(NC(=N)N)cc1)C(=O)NCc1ccccc1` (H-[Phe(4-guanidino)]-[Bip]-Arg-NHBn), the half-life at 1 mg/ml in data set [1] was 0.5 h. Moreover, the MIC in data set [3] and in data set [4] was 5 µg/mL (≈ 7.24 µM) throughout.
As to `N=C(N)NCCC[C@H](N)C(=O)N[C@@H](Cc1ccc(-c2ccccc2)cc1)C(=O)N[C@@H](CNC(=N)N)C(=O)NCc1ccccc1` (H-Arg-[Bip]-[Agp]-NHBn), the results for the half-life at 1 mg/ml in data set [5], in data set [6] and in data set [7] were 11.7 h, 5.39 h and 3.19 h, respectively. The t1/2 result in data set [1] was “Stable”. Also, the MIC in data set [3] and in data set [4] was 5 µg/mL (≈ 8.13 µM) each time.
Consider `N=C(N)NCCC[C@H](NC(=O)[C@@H](N)CCCNC(=N)N)C(=O)N[C@@H](Cc1ccc(-c2ccccc2)cc1)C(=O)NCc1ccccc1` (H-Arg-Arg-[Bip]-NHBn), for which the half-life at 1 mg/ml in data set [1] was below 0.5 h. For the same molecule, the minimum inhibitory concentration (MIC) in data set [3] and in data set [4] was 5 µg/mL (≈ 7.78 µM) each time.
`N=C(N)NC[C@H](NC(=O)[C@H](Cc1ccc(-c2ccccc2)cc1)NC(=O)[C@@H](N)CNC(=N)N)C(=O)NCc1ccccc1` (H-[Agp]-[Bip]-[Agp]-NHBn): the t1/2 result in data set [1] is “Stable”. The MIC was 10 µg/mL (≈ 17 µM) in data set [3] and 15 µg/mL (≈ 25.6 µM) in data set [4].
Take `N=C(N)NCCC[C@H](N)C(=O)N[C@@H](Cc1ccc(-c2ccccc2)cc1)C(=O)N[C@@H](CCCN)C(=O)NCc1ccccc1` (H-Arg-[Bip]-[Orn]-NHBn): in data set [1], the t1/2 entry was “Stable”. The molecule also had a pKd in data set [2] of 4.24. Moreover, the MIC was 5 µg/mL (≈ 8.32 µM) in data set [3] and 10 µg/mL (≈ 16.6 µM) in data set [4].
For `N=C(N)NCCC[C@H](NC(=O)[C@@H](N)CCCNC(=N)N)C(=O)N[C@@H](Cc1c[nH]c2ccccc12)C(=O)NCc1ccccc1` (H-Arg-Arg-Trp-NHBn), the half-life at 1 mg/ml in data set [1] was below 0.5 h. In addition, the figures for the MIC in data set [3] and in data set [4] were 25 µg/mL (≈ 41.3 µM) and 75 µg/mL (≈ 124 µM), respectively.
As to `NCCCC[C@H](NC(=O)[C@H](Cc1ccc(-c2ccccc2)cc1)NC(=O)[C@@H](N)CCCCN)C(=O)NCc1ccccc1` (H-Lys-[Bip]-Lys-NHBn), the half-life at 1 mg/ml in data set [1] is 4.5 h. In data set [2], this molecule gave a pKd of 4.68. Also, the results for the MIC in data set [3] and in data set [4] were 25 µg/mL (≈ 42.6 µM) and 15 µg/mL (≈ 25.6 µM), respectively.
As to `N=C(N)NCCC[C@H](NC(=O)[C@H](Cc1ccc(-c2ccccc2)cc1)NC(=O)[C@@H](N)CCCNC(=N)N)C(=O)NCc1ccccc1` (H-Arg-[Bip]-Arg-NHBn), the half-life at 1 mg/ml was 0.167 h in data set [5], 0.102 h in data set [6], 1 h in data set [1] and 1.76 h in data set [7]. The same molecule showed a pKd in data set [2] of 4.95. For the same molecule, the MIC in data set [3] and in data set [4] was 10 µg/mL (≈ 15.6 µM) in each case.
Consider `N=C(N)NCCC[C@H](N)C(=O)N[C@@H](Cc1ccc(N)cc1)C(=O)N[C@@H](Cc1ccc(-c2ccccc2)cc1)C(=O)NCc1ccccc1` (H-Arg-[Phe(4-NH2)]-[Bip]-NHBn), for which the t1/2 result in data set [1] was “Stable”. The pKd in data set [2] was 5.59. Also, the MIC in data set [3] was 15 µg/mL (≈ 23.1 µM); in data set [4], 10 µg/mL (≈ 15.4 µM).
With `N=C(N)Nc1ccc(C[C@H](NC(=O)[C@H](Cc2ccc(-c3ccccc3)cc2)NC(=O)[C@@H](N)Cc2ccc(NC(=N)N)cc2)C(=O)NCc2ccccc2)cc1` (H-[Phe(4-guanidino)]-[Bip]-[Phe(4-guanidino)]-NHBn), in data set [1], the half-life at 1 mg/ml was 2.2 h. In addition, the MIC in data set [3] was below 2.5 µg/mL; in data set [4], 5 µg/mL (≈ 6.77 µM).
The like results for `N=C(N)NCCCC[C@H](N)C(=O)N[C@@H](Cc1ccc(-c2ccccc2)cc1)C(=O)N[C@@H](CCCNC(=N)N)C(=O)NCc1ccccc1` (H-[hArg]-[Bip]-Arg-NHBn) were, in that order, 1.9 h, below 2.5 µg/mL and 10 µg/mL (≈ 15.2 µM).
As to `N=C(N)NCCC[C@H](NC(=O)[C@H](Cc1ccc(-c2ccccc2)cc1)NC(=O)[C@@H](N)CCCN)C(=O)NCc1ccccc1` (H-[Orn]-[Bip]-Arg-NHBn), the half-life at 1 mg/ml in data set [1] is 5.1 h. The molecule also gave a pKd in data set [2] of 4.43. Besides, the results for the MIC in data set [3] and in data set [4] were 15 µg/mL (≈ 25 µM) and 25 µg/mL (≈ 41.6 µM), respectively.
Taken in the same sequence, the figures for `N=C(N)NCCC[C@H](N)C(=O)N[C@@H](Cc1ccc(-c2ccccc2)cc1)C(=O)N[C@@H](Cc1ccc(NC(=N)N)cc1)C(=O)NCc1ccccc1` were 4.1 h, 5.28, 5 µg/mL (≈ 7.24 µM) and 5 µg/mL (≈ 7.24 µM).
For `N=C(N)NCCCC[C@H](NC(=O)[C@H](Cc1ccc(-c2ccccc2)cc1)NC(=O)[C@@H](N)CCCNC(=N)N)C(=O)NCc1ccccc1` (H-Arg-[Bip]-[hArg]-NHBn), the half-life at 1 mg/ml in data set [5] was determined as 6.69 h; in data set [6], 1.37 h; in data set [7] it was 1.07 h. Besides, the t1/2 entry in data set [1] is reported as “Stable”. Also, the negative logarithm of the Kd (pKd) in data set [2] was 4.32. For the same molecule, the values for the MIC in data set [3] and in data set [4] were 5 µg/mL (≈ 7.61 µM) and 10 µg/mL (≈ 15.2 µM), respectively.
On to `N=C(N)NCCC[C@H](NC(=O)[C@H](Cc1ccc(-c2ccccc2)cc1)NC(=O)[C@@H](N)CNC(=N)N)C(=O)NCc1ccccc1` (H-[Agp]-[Bip]-Arg-NHBn), for which the half-life at 1 mg/ml in data set [1] is 1.4 h. The MIC in data set [3] and in data set [4] was 10 µg/mL (≈ 16.3 µM) each time.
For `N=C(N)NCCC[C@H](N)C(=O)N[C@@H](Cc1ccc(N)cc1)C(=O)N[C@@H](Cc1c[nH]c2ccccc12)C(=O)NCc1ccccc1` (H-Arg-[Phe(4-NH2)]-Trp-NHBn), in data set [1], the t1/2 result is on record as “Stable”. This molecule gave a pKd in data set [2] of 4.83. For the same molecule, the MIC in data set [3] is 75 µg/mL (≈ 123 µM); in data set [4] it was above 150 µg/mL.
As for `N=C(N)NCCC[C@H](N)C(=O)N[C@@H](Cc1ccc(NC(=N)N)cc1)C(=O)N[C@@H](Cc1ccc(-c2ccccc2)cc1)C(=O)NCc1ccccc1` (H-Arg-[Phe(4-guanidino)]-[Bip]-NHBn), in data set [1], the half-life at 1 mg/ml was 3.5 h. Further, the MIC amounted to 2.5 µg/mL (≈ 3.62 µM) in data set [3] and 5 µg/mL (≈ 7.24 µM) in data set [4].
Taken in the same sequence, the figures for `N=C(N)NCCC[C@H](N)C(=O)N[C@@H](Cc1ccc(NC(=N)N)cc1)C(=O)N[C@@H](Cc1c[nH]c2ccccc12)C(=O)NCc1ccccc1` (H-Arg-[Phe(4-guanidino)]-Trp-NHBn) were 8 h, 15 µg/mL (≈ 22.9 µM) and 50 µg/mL (≈ 76.5 µM).
Turning to `N=C(N)Nc1ccc(C[C@H](N)C(=O)N[C@@H](Cc2ccc(-c3ccccc3)cc2)C(=O)N[C@@H](CCCCN)C(=O)NCc2ccccc2)cc1` (H-[Phe(4-guanidino)]-[Bip]-Lys-NHBn), in data set [1], the half-life at 1 mg/ml was 2.2 h. For the same molecule, the figures for the MIC in data set [3] and in data set [4] were 5 µg/mL (≈ 7.54 µM) and 10 µg/mL (≈ 15.1 µM), respectively.
For the molecule `N=C(N)Nc1ccc(C[C@H](NC(=O)[C@H](Cc2ccc(-c3ccccc3)cc2)NC(=O)[C@@H](N)CCCCN)C(=O)NCc2ccccc2)cc1` (H-Lys-[Bip]-[Phe(4-guanidino)]-NHBn), in data set [1], the half-life at 1 mg/ml is 5 h. Also, the MIC in data set [3] and in data set [4] was 5 µg/mL (≈ 7.54 µM) each time.

Source of the values: ChEMBL document CHEMBL2163284, “Targeting the S1 and S3 subsite of trypsin with unnatural cationic amino acids generates antimicrobial peptides with potential for oral administration” (J Med Chem, 2012).
